In the NIST ThermoML archive (doi:10.1016/j.jct.2011.02.008):
± gives the expanded uncertainty stated by the source.

Conditions: Liquid, Vibrating tube method

CCCCCCO [hexan-1-ol]
mass density (278.15 K, 100 kPa): 828.9 ± 2.4 kg/m3
mass density (278.15 K, 1000 kPa): 829.5 ± 2.4 kg/m3
mass density (278.15 K, 5000 kPa): 832 ± 2.4 kg/m3
mass density (278.15 K, 10000 kPa): 835 ± 2.4 kg/m3
mass density (278.15 K, 15000 kPa): 838 ± 2.4 kg/m3
mass density (278.15 K, 20000 kPa): 840.8 ± 2.4 kg/m3
mass density (278.15 K, 25000 kPa): 843.6 ± 2.4 kg/m3
mass density (278.15 K, 30000 kPa): 846.3 ± 2.4 kg/m3
mass density (278.15 K, 35000 kPa): 848.9 ± 2.4 kg/m3
mass density (278.15 K, 40000 kPa): 851.4 ± 2.4 kg/m3
mass density (278.15 K, 45000 kPa): 853.9 ± 2.4 kg/m3
mass density (278.15 K, 50000 kPa): 856.3 ± 2.4 kg/m3
mass density (278.15 K, 55000 kPa): 858.7 ± 2.4 kg/m3
mass density (278.15 K, 60000 kPa): 860.9 ± 2.4 kg/m3
mass density (288.15 K, 100 kPa): 822.1 ± 2.4 kg/m3
mass density (288.15 K, 1000 kPa): 822.7 ± 2.4 kg/m3
mass density (288.15 K, 5000 kPa): 825.3 ± 2.4 kg/m3
mass density (288.15 K, 10000 kPa): 828.5 ± 2.4 kg/m3
mass density (288.15 K, 15000 kPa): 831.6 ± 2.4 kg/m3
mass density (288.15 K, 20000 kPa): 834.6 ± 2.4 kg/m3
mass density (288.15 K, 25000 kPa): 837.4 ± 2.4 kg/m3
mass density (288.15 K, 30000 kPa): 840.2 ± 2.4 kg/m3
mass density (288.15 K, 35000 kPa): 842.9 ± 2.4 kg/m3
mass density (288.15 K, 40000 kPa): 845.5 ± 2.4 kg/m3
mass density (288.15 K, 45000 kPa): 848 ± 2.4 kg/m3
mass density (288.15 K, 50000 kPa): 850.5 ± 2.4 kg/m3
mass density (288.15 K, 55000 kPa): 853 ± 2.4 kg/m3
mass density (288.15 K, 60000 kPa): 855.4 ± 2.4 kg/m3
mass density (298.15 K, 100 kPa): 814.9 ± 2.4 kg/m3
mass density (298.15 K, 1000 kPa): 815.6 ± 2.4 kg/m3
mass density (298.15 K, 5000 kPa): 818.4 ± 2.4 kg/m3
mass density (298.15 K, 10000 kPa): 821.7 ± 2.4 kg/m3
mass density (298.15 K, 15000 kPa): 824.9 ± 2.4 kg/m3
mass density (298.15 K, 20000 kPa): 828 ± 2.4 kg/m3
mass density (298.15 K, 25000 kPa): 830.9 ± 2.4 kg/m3
mass density (298.15 K, 30000 kPa): 833.8 ± 2.4 kg/m3
mass density (298.15 K, 35000 kPa): 836.6 ± 2.4 kg/m3
mass density (298.15 K, 40000 kPa): 839.4 ± 2.4 kg/m3
mass density (298.15 K, 45000 kPa): 842 ± 2.4 kg/m3
mass density (298.15 K, 50000 kPa): 844.6 ± 2.4 kg/m3
mass density (298.15 K, 55000 kPa): 847.1 ± 2.4 kg/m3
mass density (298.15 K, 60000 kPa): 849.6 ± 2.4 kg/m3
mass density (308.15 K, 100 kPa): 807.8 ± 2.4 kg/m3
mass density (308.15 K, 1000 kPa): 808.4 ± 2.4 kg/m3
mass density (308.15 K, 5000 kPa): 811.4 ± 2.4 kg/m3
mass density (308.15 K, 10000 kPa): 814.8 ± 2.4 kg/m3
mass density (308.15 K, 15000 kPa): 818.2 ± 2.4 kg/m3
mass density (308.15 K, 20000 kPa): 821.4 ± 2.4 kg/m3
mass density (308.15 K, 25000 kPa): 824.5 ± 2.4 kg/m3
mass density (308.15 K, 30000 kPa): 827.5 ± 2.4 kg/m3
mass density (308.15 K, 35000 kPa): 830.3 ± 2.4 kg/m3
mass density (308.15 K, 40000 kPa): 833.2 ± 2.4 kg/m3
mass density (308.15 K, 45000 kPa): 835.9 ± 2.4 kg/m3
mass density (308.15 K, 50000 kPa): 838.5 ± 2.4 kg/m3
mass density (308.15 K, 55000 kPa): 841.1 ± 2.4 kg/m3
mass density (308.15 K, 60000 kPa): 843.5 ± 2.4 kg/m3
mass density (318.15 K, 100 kPa): 800.5 ± 2.4 kg/m3
mass density (318.15 K, 1000 kPa): 801.2 ± 2.4 kg/m3
mass density (318.15 K, 5000 kPa): 804.3 ± 2.4 kg/m3
mass density (318.15 K, 10000 kPa): 807.9 ± 2.4 kg/m3
mass density (318.15 K, 15000 kPa): 811.4 ± 2.4 kg/m3
mass density (318.15 K, 20000 kPa): 814.7 ± 2.4 kg/m3
mass density (318.15 K, 25000 kPa): 817.9 ± 2.4 kg/m3
mass density (318.15 K, 30000 kPa): 821 ± 2.4 kg/m3
mass density (318.15 K, 35000 kPa): 824 ± 2.4 kg/m3
mass density (318.15 K, 40000 kPa): 826.9 ± 2.4 kg/m3
mass density (318.15 K, 45000 kPa): 829.7 ± 2.4 kg/m3
mass density (318.15 K, 50000 kPa): 832.4 ± 2.4 kg/m3
mass density (318.15 K, 55000 kPa): 835.1 ± 2.4 kg/m3
mass density (318.15 K, 60000 kPa): 837.7 ± 2.4 kg/m3
mass density (328.15 K, 100 kPa): 793 ± 2.4 kg/m3
mass density (328.15 K, 1000 kPa): 793.7 ± 2.4 kg/m3
mass density (328.15 K, 5000 kPa): 797 ± 2.4 kg/m3
mass density (328.15 K, 10000 kPa): 800.8 ± 2.4 kg/m3
mass density (328.15 K, 15000 kPa): 804.4 ± 2.4 kg/m3
mass density (328.15 K, 20000 kPa): 807.9 ± 2.4 kg/m3
mass density (328.15 K, 25000 kPa): 811.2 ± 2.4 kg/m3
mass density (328.15 K, 30000 kPa): 814.4 ± 2.4 kg/m3
mass density (328.15 K, 35000 kPa): 817.6 ± 2.4 kg/m3
mass density (328.15 K, 40000 kPa): 820.6 ± 2.4 kg/m3
mass density (328.15 K, 45000 kPa): 823.5 ± 2.4 kg/m3
mass density (328.15 K, 50000 kPa): 826.4 ± 2.4 kg/m3
mass density (328.15 K, 55000 kPa): 829.1 ± 2.4 kg/m3
mass density (328.15 K, 60000 kPa): 831.6 ± 2.4 kg/m3
mass density (338.15 K, 100 kPa): 785.4 ± 2.4 kg/m3
mass density (338.15 K, 1000 kPa): 786.2 ± 2.4 kg/m3
mass density (338.15 K, 5000 kPa): 789.6 ± 2.4 kg/m3
mass density (338.15 K, 10000 kPa): 793.6 ± 2.4 kg/m3
mass density (338.15 K, 15000 kPa): 797.4 ± 2.4 kg/m3
mass density (338.15 K, 20000 kPa): 801 ± 2.4 kg/m3
mass density (338.15 K, 25000 kPa): 804.5 ± 2.4 kg/m3
mass density (338.15 K, 30000 kPa): 807.9 ± 2.4 kg/m3
mass density (338.15 K, 35000 kPa): 811.1 ± 2.4 kg/m3
mass density (338.15 K, 40000 kPa): 814.2 ± 2.4 kg/m3
mass density (338.15 K, 45000 kPa): 817.3 ± 2.4 kg/m3
mass density (338.15 K, 50000 kPa): 820.2 ± 2.4 kg/m3
mass density (338.15 K, 55000 kPa): 823.1 ± 2.4 kg/m3
mass density (338.15 K, 60000 kPa): 825.7 ± 2.4 kg/m3
mass density (348.15 K, 100 kPa): 777.6 ± 2.4 kg/m3
mass density (348.15 K, 1000 kPa): 778.4 ± 2.4 kg/m3
mass density (348.15 K, 5000 kPa): 782 ± 2.4 kg/m3
mass density (348.15 K, 10000 kPa): 786.2 ± 2.4 kg/m3
mass density (348.15 K, 15000 kPa): 790.2 ± 2.4 kg/m3
mass density (348.15 K, 20000 kPa): 794.1 ± 2.4 kg/m3
mass density (348.15 K, 25000 kPa): 797.6 ± 2.4 kg/m3
mass density (348.15 K, 30000 kPa): 801.2 ± 2.4 kg/m3
mass density (348.15 K, 35000 kPa): 804.6 ± 2.4 kg/m3
mass density (348.15 K, 40000 kPa): 807.8 ± 2.4 kg/m3
mass density (348.15 K, 45000 kPa): 811 ± 2.4 kg/m3
mass density (348.15 K, 50000 kPa): 814 ± 2.4 kg/m3
mass density (348.15 K, 55000 kPa): 817 ± 2.4 kg/m3
mass density (348.15 K, 60000 kPa): 819.7 ± 2.4 kg/m3
mass density (358.15 K, 100 kPa): 769.4 ± 2.4 kg/m3
mass density (358.15 K, 1000 kPa): 770 ± 2.4 kg/m3
mass density (358.15 K, 5000 kPa): 774.2 ± 2.4 kg/m3
mass density (358.15 K, 10000 kPa): 778.6 ± 2.4 kg/m3
mass density (358.15 K, 15000 kPa): 782.8 ± 2.4 kg/m3
mass density (358.15 K, 20000 kPa): 786.9 ± 2.4 kg/m3
mass density (358.15 K, 25000 kPa): 790.7 ± 2.4 kg/m3
mass density (358.15 K, 30000 kPa): 794.3 ± 2.4 kg/m3
mass density (358.15 K, 35000 kPa): 797.9 ± 2.4 kg/m3
mass density (358.15 K, 40000 kPa): 801.3 ± 2.4 kg/m3
mass density (358.15 K, 45000 kPa): 804.6 ± 2.4 kg/m3
mass density (358.15 K, 50000 kPa): 807.7 ± 2.4 kg/m3
mass density (358.15 K, 55000 kPa): 810.8 ± 2.4 kg/m3
mass density (358.15 K, 60000 kPa): 813.5 ± 2.5 kg/m3
